# In patent US20250352611A1, “METHODS FOR TREATING CATARACTS USING POLYPEPTIDES” (REJUKON BIOPHARM INC., priority 2022, published 2025):
# Columns and labels:
# [1] = system: crystallin protein aggregates from human cataract patients; assay: Re-dissolution of crystallin aggregates from patients with different degrees of cataract (ThT fluorescence); conditions: LOCS II grades e.g. C1N2P0
# Excerpt: DM: diabetes mellitus. lens opacity classification: C: cortex; N: nucleus; P: the posterior lens capsule.
# Human lenses used in this study were obtained from unidentified patients undergoing extracapsular cataract surgery. The material had been classified as non-human discarded material. Preoperative clinical exam was used to classify the cataract as mixed cortical and nuclear using LOCS II four-point grading system. LOCS II four-point grading system is also commonly used in clinical settings. (Chylack LT Jr, Leske MC, McCarthy D, Khu P, Kashiwagi T, Sperduto R. Lens opacities classification system II (LOCS II). Arch Ophthalmol. 1989 July; 107(7):991-7. doi: 10.1001/archopht.1989.01070020053028. PMID: 2751471). We tested the crystallin concentrates of patients with different degrees of cataract one by one. […]
# [2] = system: γD (W42D) aggregates in the SH-SY5Y cell; assay: γD (W42D) aggregates in SH-SY5Y cells, live imaging and CellProfiler analysis; type: cell-based; conditions: 20 uM, added every 4 hours for a total of 24 hours
# Protocol: Cells were grown in a 12-well plate (1×10^5 cells per well) for 24 hours and transfected with γD (W42D) plasmid using EZtrans transfection reagent. 24 hours after transfection, Champ peptides RJK001 (final concentration of 20 uM) and RJK0012 (final concentration of 10 uM and 20 uM) were added into SH-SY5Y cell culture medium every 4 hours for a total of 24 hours. The effect of RJK001 and RJK012 polypeptide on the γD (W42D) aggregates in the SH-SY5Y cell mode were analyzed using a custom CellProfiler software. Briefly, cell bodies were then segmented and identified by the GFP fluorescence channel images and tracing outward to the limits of the cytoplasmic (using a diameter cutoff of 100-300 pixels). The cell bodies were used as masks to eliminate imaging artifacts outside of cell boundaries, such as background fluorescence or dead cells. After masking, punctate structures were enhanced by image processing for speckle-like features that were 10 pixels in diameter for SH-SY5Y cells and these punctate structures were then annotated as features such as γD (W42D) puncta. Finally, the total image area which was enclosed in each of the identified features (number of cell and punctate) was calculated and output to spreadsheets. At least 200 cells per sample were analyzed. […]
# Granules screen and assay images were segmented and image features quantified using a custom CellProfiler and ImageJ software. […] The effect of RJK001 and RJK012 polypeptide on the γD ([…]) aggregates in the SH-SY5Y cell mode were analyzed using a custom CellProfiler software. Briefly, cell bodies were then segmented and identified by the GFP fluorescence channel images and tracing outward to the limits of the cytoplasmic (using a diameter cutoff of 100-300 pixels). The cell bodies were used as masks to eliminate imaging artifacts outside of cell boundaries, such as background fluorescence or dead cells. […] Finally, the total image area which was enclosed in each of the identified features (number of cell and punctate) was calculated and output to spreadsheets. At least 200 cells per sample were analyzed.
sequence,measurement,setting,value
"TEPQEESEEEVEEPEERQQTPEVVPDDSGTFYDQTVSNDLE [RJK001, polypeptide with hydrophilic and hydrophobic segment, expressed in E. coli]",depolymerization effect on crystallin concentrates of patients with different degrees of cataract,[1],good depolymerization effects
same,number of γD (W42D) aggregates in the SH-SY5Y cell,[2],reduced the number of γD (W42D) aggregates in the SH-SY5Y cell in a time-dependent manner until 12 hours
